The text below walks through data of US20180104220A1, “IMIDAZOLE COMPOUND” (MEDSHINE DISCOVERY INC., priority 2015, published 2018).

SMILES strings stand for the structures.

One assay addresses T1, thromboxane synthetase (Rattus norvegicus, UniProt P49430).
T1 construct: Whole blood was collected from the heart of male SD rat after isoflurane anesthesia; from tissue; host or cells: whole blood of male Sprague-Dawley rats
T1 sequence (P49430 1-533): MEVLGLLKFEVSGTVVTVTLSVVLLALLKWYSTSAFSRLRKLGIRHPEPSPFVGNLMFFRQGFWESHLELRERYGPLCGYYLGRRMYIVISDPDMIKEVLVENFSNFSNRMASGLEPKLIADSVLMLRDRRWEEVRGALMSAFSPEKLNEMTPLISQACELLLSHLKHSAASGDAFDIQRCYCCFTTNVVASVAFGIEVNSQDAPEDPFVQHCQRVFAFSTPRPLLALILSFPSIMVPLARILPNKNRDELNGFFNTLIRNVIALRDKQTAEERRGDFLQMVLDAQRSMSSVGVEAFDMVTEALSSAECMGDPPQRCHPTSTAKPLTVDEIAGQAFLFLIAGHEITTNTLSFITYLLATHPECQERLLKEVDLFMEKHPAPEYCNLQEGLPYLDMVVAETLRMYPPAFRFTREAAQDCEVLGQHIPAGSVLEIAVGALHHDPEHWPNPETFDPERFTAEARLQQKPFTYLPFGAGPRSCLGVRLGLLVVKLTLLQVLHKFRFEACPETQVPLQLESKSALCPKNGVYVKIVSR
The assay is described as follows: Release of TXB2 in the in-vitro coagulation process of rats' whole blood. It counts as cell-based. The settings on record: male SD rat whole blood, 37° C. 30 mins, TXB2 by LC-MS/MS; class symbols; read-out: IC50 for the release level of TXB2 in the in-vitro coagulation of rats' whole blood (thromboxane synthetase). From the text: Study for the Release of TXB2 in the in-vitro Coagulation Process of Rats' Whole Blood
In the in-vitro coagulation process, thromboxane A2 (TXA2) pathway was activated, resulting in the formation of large amounts of TXA2, which were rapidly metabolized to its stable form thromboxane B2 (TXB2).
The key enzyme of this pathway was thromboxane synthase. The generation of TXA2 could be inhibited by blocking this enzyme with specific inhibitors (tested compounds), and the level of TXB2 was thus decreased.
The activity of tested compound was measured with the IC50 of inhibiting the formation of TBX2.
Male Sprague-Dawley (SD) rats, purchased from Shanghai SLAC Laboratory Animal Co., Ltd.
0.9% normal saline, […] NaOH solution (vehicle), 100 uM thromboxane synthetase inhibitor solution, isoflurane
1. Tested compound was dissolved by normal saline and prepared to required concentration by gradient dilution. 167 uL of prepared solution was added to centrifuge tube.
2. Whole blood was collected from the heart of male SD rat after isoflurane anesthesia, added to centrifuge tube (0.5 mL), shaken up and incubated under 37° C. water bath for 30 mins until complete coagulation.
3. Centrifuge tube was taken out and centrifuged for 5 mins (6000 g, 4° C.) to get serum.
4. Assay the content of TXB2 by LC-MS/MS-AG (API 4000).
By comparison with the vehicle group, TXB2 contents of each sample were normalized to Control % by the formule:
Control %=(TBX2 level in test tube−TBX2 level in negative tube)/TBX2 level in control tube×100
Note: Test tube: solution of tested compound with series concentration
Negative tube: solution of thromboxane synthetase inhibitor at high concentration (100 uM)
Using GraphPad Prism (concentration as X-axis and Control % as Y-axis) to fit the data and calculate IC50.
`Oc1cc(-c2ccc(Cn3ccnc3)cc2)on1` [Compound 1, 5-(4-((1H-imidazol-1-yl)methyl)phenyl)isoxazol-3-ol]: the IC50 was at most 25 nM.

With `Oc1cc(-c2ccc(Cn3ccnc3)c(F)c2)on1` [Compound 2, 5-(4-((1H-imidazol-1-yl)methyl)-3-fluorophenyl)isoxazol-3-ol], the IC50 fell in the range of 100 to 250 nM.

Take `Oc1cc(-c2ccc(Cn3ccnc3)cc2F)on1` [Compound 3, 5-(4-((1H-imidazol-1-yl)methyl)-2-fluorophenyl)isoxazol-3-ol]: the half-maximal inhibitory concentration (IC50) was 50 to 100 nM.

`Oc1cc(-c2cc(F)c(Cn3ccnc3)cc2F)on1` [Compound 4, 5-(4-((1H-imidazol-1-yl)methyl)-2,5-difluorophenyl)isoxazol-3-ol]: the concentration for half-maximal inhibition (IC50) lay within 25 to 50 nM.

On to `Oc1cc(-c2c(F)cc(Cn3ccnc3)cc2F)on1` [Compound 5, 5-(4-((1H-imidazol-1-yl)methyl)-2,6-difluorophenyl)isoxazol-3-ol], for which the concentration for half-maximal inhibition (IC50) lay in the range of 50 to 100 nM.

As to `Oc1cc(-c2cc(F)c(Cn3ccnc3)c(Cl)c2)on1` [Compound 6, 5-(4-((1H-imidazol-1-yl)methyl)-3-chloro-5-fluorophenyl)-isoxazol-3-ol], the half-maximal inhibitory concentration (IC50) fell in the range of 25 to 50 nM.

For the compound `Oc1cc(-c2ccc(Cn3ccnc3)cc2Cl)on1` [Compound 7, 5-(4-((1H-imidazol-1-yl)methyl)-2-chlorophenyl)isoxazol-3-ol], the IC50 was in the range of 50 to 100 nM.

Regarding `Cc1cc(Cn2ccnc2)ccc1-c1cc(O)no1` [Compound 8, 5-(4-((1H-imidazol-1-yl)methyl)-2-methylphenyl)isoxazol-3-ol], the half-inhibitory concentration (IC50) was in the range of 50 to 100 nM.

As for `COc1cc(Cn2ccnc2)ccc1-c1cc(O)no1` [Compound 9, 5-(4-((1H-imidazol-1-yl)methyl)-2-methoxyphenyl)isoxazol-3-ol], the IC50 is at most 25 nM.

Regarding `COc1cc(-c2cc(O)no2)ccc1Cn1ccnc1` [Compound 10, 5-(4-((1H-imidazol-1-yl)methyl)-3-methoxyphenyl)isoxazol-3-ol], the half-inhibitory concentration (IC50) lay in the range of 50 to 100 nM.

On to `Oc1cc(-c2ccc(Cn3ccnc3)c(Cl)c2)on1` [Compound 11, 5-(4-((1H-imidazol-1-yl)methyl)-3-chlorophenyl)isoxazol-3-ol], for which the IC50 fell in the range of 25 to 50 nM.

Regarding `Cc1cc(-c2cc(O)no2)ccc1Cn1ccnc1` [Compound 12, 5-(4-((1H-imidazol-1-yl)methyl)-3-methylphenyl)isoxazol-3-ol], the IC50 fell in the range of 25 to 50 nM.

As to `Oc1cc(-c2ccc(Cn3ccnc3)c(Br)c2)on1` [Compound 13, 5-(4-((1H-imidazol-1-yl)methyl)-3-bromophenyl)isoxazol-3-ol], the IC50 is 25 to 50 nM.

Take `Oc1cc(-c2ccc(Cn3ccnc3)nc2)on1` [Compound 14, 5-(6-((1H-imidazol-1-yl)methyl)pyridin-3-yl)isoxazol-3-ol]: the IC50 was over 250 nM.

Regarding `Oc1cc(-c2ccc(Cn3ccnc3)c(C3CC3)c2)on1` [Compound 15, 5-(4-((1H-imidazol-1-yl)methyl)-3-cyclopropylphenyl)isoxazol-3-ol], the half-maximal inhibitory concentration (IC50) was in the range of 50 to 100 nM.

As to `CCc1cc(-c2cc(O)no2)ccc1Cn1ccnc1` [Compound 16, 5-(4-((1H-imidazol-1-yl)methyl)-3-ethylphenyl)isoxazol-3-ol], the IC50 was at most 25 nM.

Regarding `Oc1cc(-c2cc(F)c(Cn3ccnc3)c(F)c2)on1` [Compound 17, 5-(4-((1H-imidazol-1-yl)methyl)-3,5-difluorophenyl)isoxazol-3-ol], the concentration for half-maximal inhibition (IC50) is at most 25 nM.

As for `Cc1cc(-c2cc(O)no2)cc(C)c1Cn1ccnc1` [Compound 18, 5-(4-((1H-imidazol-1-yl)methyl)-3,5-dimethylphenyl)isoxazol-3-ol], the half-inhibitory concentration (IC50) is over 250 nM.

For `CC(c1ccc(-c2cc(O)no2)cc1)n1ccnc1` (stereo not drawn) [Compound 20, 5-(4-(1-(1H-imidazol-1-yl)ethyl)phenyl)isoxazol-3-ol], the IC50 was at most 25 nM.

In the case of `C[C@H](c1ccc(-c2cc(O)no2)cc1)n1ccnc1` [Compound 21, (R)-5-(4-(1-(1H-imidazol-1-yl)ethyl)phenyl)isoxazol-3-ol], the 50% inhibitory concentration (IC50) is at most 25 nM.

On to `C[C@@H](c1ccc(-c2cc(O)no2)cc1)n1ccnc1` [Compound 22, (S)-5-(4-(1-(1H-imidazol-1-yl)ethyl)phenyl)isoxazol-3-ol], for which the concentration for half-maximal inhibition (IC50) fell in the range of 50 to 100 nM.

Consider `CC(C)(c1ccc(-c2cc(O)no2)cc1)n1ccnc1` [Compound 23, 5-(4-(2-(1H-imidazol-1-yl)propan-2-yl)phenyl)isoxazol-3-ol], for which the IC50 is 100 to 250 nM.

For `Oc1cc(-c2cccc(Cn3ccnc3)c2)on1` [Compound 24, 5-(3-((1H-imidazol-1-yl)methyl)phenyl)isoxazol-3-ol], the half-maximal inhibitory concentration (IC50) was over 250 nM.

`Oc1cc(Cc2ccc(Cn3ccnc3)cc2)on1` [Compound 25, 5-(4-(2-(1H-imidazol-1-yl)methyl)benzyl)isoxazol-3-ol]: the 50% inhibitory concentration (IC50) is over 250 nM.

With `Oc1cc(Cc2cccc(Cn3ccnc3)c2)on1` [Compound 26, 5-(3-((1H-imidazol-1-yl)methyl)benzyl)isoxazol-3-ol], the concentration for half-maximal inhibition (IC50) was over 250 nM.

As to `Oc1nccc(-c2ccc(Cn3ccnc3)cc2)c1F` [Compound 27, 4-(4-((1H-imidazol-1-yl)methyl)phenyl)-3-fluoropyridin-2-ol], the IC50 is over 250 nM.

Turning to `Oc1c(F)ccc(-c2ccc(Cn3ccnc3)cc2)c1F` [Compound 28, 4′-((1H-imidazol-1-yl)methyl)-2,4-difluoro-[1,1′-biphenyl]-3-ol], the IC50 was in the range of 100 to 250 nM.

For `Oc1cc(-c2ccc(Cn3ccnc3)cc2)sn1` [Compound 29, 5-(4-((1H-imidazol-1-yl)methyl)phenyl)isothiazol-3-ol], the 50% inhibitory concentration (IC50) was over 250 nM.

As to `Cc1c(O)noc1-c1ccc(Cn2ccnc2)cc1` [Compound 30, 5-(4-((1H-imidazol-1-yl)methyl)phenyl)-4-methylisoxazol-3-ol], the 50% inhibitory concentration (IC50) is over 250 nM.

For `Oc1cc(-c2ccc(Cn3ccnc3)cc2)[nH]n1` [Compound 31, 5-(4-((1H-imidazol-1-yl)methyl)phenyl)-1H-pyrazol-3-ol], the IC50 was over 250 nM.

For the compound `Oc1cc(CCCCn2ccnc2)on1` [Compound 32, 5-(4-(1H-imidazol-1-yl)butyl)isoxazol-3-ol], the concentration for half-maximal inhibition (IC50) was over 250 nM.

Take `Oc1cc(CCCCCn2ccnc2)on1` [Compound 33, 5-(5-(1H-imidazol-1-yl)pentyl)isoxazol-3-ol]: the IC50 is over 250 nM.

Take `Oc1cc([C@H]2CC[C@H](Cn3ccnc3)CC2)on1` [Compound 34, 5-(trans-4-((1H-imidazol-1-yl)methyl)cyclohexyl)isoxazol-3-ol]: the half-inhibitory concentration (IC50) lay in the range of 25 to 50 nM.

For `Oc1cc([C@H]2CC[C@@H](Cn3ccnc3)CC2)on1` [Compound 35, 5-(cis-4-((1H-imidazol-1-yl)methyl)cyclohexyl)isoxazol-3-ol], the half-maximal inhibitory concentration (IC50) was in the range of 50 to 100 nM.

In the case of `Oc1nccc(C2=CCC(Cn3ccnc3)CC2)c1F` (stereo not drawn) [Compound 36, 4-(4-((1H-imidazol-1-yl)methyl)cyclohex-1-en-1-yl)-3-fluoropyridin-2-ol], the half-maximal inhibitory concentration (IC50) is 100 to 250 nM.

The same assay, now with this note: male SD rat whole blood, 37° C. 30 mins, TXB2 by LC-MS/MS; numeric value; read-out: IC50 for the release level of TXB2 in the in-vitro coagulation of rats' whole blood (thromboxane synthetase).
On to `O=C(O)/C=C/c1ccc(Cn2ccnc2)cc1` [Ozagrel, reference compound], for which the IC50 was 120 nM.
